Laboratory results: patent publication US9029168B2, “Use and making of biosensors utilizing antimicrobial peptides for highly sensitive biological monitoring” (priority 2010, dated 2015)

Assays:
Escherichia coli = settings: cited from earlier work
[1] = tested on: E. coli O157:H7 bacterial cell; assay: Single bacterium detection on graphene sensors functionalized with antimicrobial peptide, simultaneous resistance and optical data; format: binding; settings: compared to non-functionalized graphene
Text: Simultaneous collection of electrical and fluorescence data from the graphene sensors in the presence of fluorescently labeled E. coli cells clearly indicate that the change in the resistance recorded corresponds to the binding and unbinding of the bacterial cell from the graphene surface. The resistance of the graphene sensor remains at the baseline value until the bacterial cell diffuses to the sensor surface and drops down by approximately 0.6 percentage of the original, once the bacterial cell binds to the graphene surface.
The resistance of the sensor decreases from the baseline value up on the binding of the negatively charged bacterial cell and returns back to the initial value up on unbinding, indicating a p-type behavior of the graphene transducer. […] In order to determine the effect of the immobilized AMPs on the binding/unbinding properties simultaneous resistance and optical data were recorded on graphene sensors functionalized with antimicrobial peptides. […]
Electrical measurements for the detection of single bacteria binding measurements were performed with a lock-in detection system using Stanford Research Systems 810 DSP lock-in amplifier. […] The resistance of the graphene sensor was monitored continuously in the presence of analyte sample of various dilutions of bacterial cells. […]

Helicobacter pylori = settings: cited from earlier work
[2] = tested on: methicillin resistant strains of S. aureus; settings: cited from earlier work
Staphylococcus aureus = settings: cited from earlier work
Salmonella typhimurium = assay: Selectivity of AMP-functionalized biosensor, pathogenic E. coli relative to Salmonella; format: binding; settings: 10^7 CFU/mL
Description: (§1) As a next step, the selectivity of the AMP-functionalized biosensors toward various bacterial species was determined. Specifically, the binding behavior of AMPs was probed toward: 1) Gram-negative pathogenic E. coli O157:H7, 2) the non-pathogenic E. coli strain ATCC 35218, 3) Gram-negative pathogenic Salmonella typhimurium, and Listeria monocytogenes, a Gram-positive pathogen. Collectively, these studies elucidate the matrix of selectivity as it depends on Gram-negative vs. Gram-positive species, and pathogenic vs. non-pathogenic strains. […]
(§2) Stock solutions of propidium iodide (PI), nucleic acid stain (Molecular probes, Eugene, Oreg.) were made from solid form by dissolving PI (MW=668.4) in deionized water at 1 mg/mL (1.5 mM) and stored at 4° C., protected from light. […] The binding pattern of the different bacterial cells was imaged using a Zeiss axiovert inverted microscope and recorded with a Zeiss axiocam digital camera. Surface density of the bound bacterial cells was analyzed and plotted using imageJ software from NIH.
(§3) Dielectric property changes due to AMP-bacteria interactions were probed using a Fast-Fourier Transform (FFT) spectrum analyzer. […] For real-time measurements, the impedance vs. time data was recorded while buffer solutions or different dilutions of bacterial solutions flowed through the microfluidic channel. […]

E. coli O157:H7 cells = assay: Impedance spectroscopy of magainin-functionalized interdigitated microelectrode array, sensitivity measurements; format: binding; settings: E. coli O157:H7 10^7 CFU/mL; response at 10 Hz
Description: FIG. 2 schematically outlines the sensing platform. AMPs are first immobilized on microfabricated interdigitated gold electrodes, anode 10 and cathode 12 (FIG. 2A). Magainin I was acquired with an additional cysteine residue at the C-terminus (FIG. 2B), allowing for facile and site specific covalent attachment to the gold electrodes. Next, heat-killed bacterial cells were injected and incubated with the AMP-modified electrodes. If the bacteria are recognized by the AMPs, binding will occur (FIG. 2C), leading to dielectric property changes which can be monitored via a spectrum analyzer. The impedance was measured over a frequency range of 10 Hz to 100 kHz.
Sensitivity of microbial detection is a key determinant for utility of the biosensor. To this end, the sensitivity of the magainin-functionalized microelectrode array in detecting bacterial cells was determined using impedance spectroscopy. […] A “blank” device with no immobilized AMPs was also tested for comparison. […] As the frequency increases, the contribution to the impedance from the bacterial cells decreases, leaving only the dielectric relaxation of small dipoles including water molecules in the buffer solution to affect the measured impedance. FIG. 3B depicts the impedance change at the fixed frequency of 10 Hz. […]

Listeria monocytogenes = assay: Selectivity of AMP-functionalized biosensor (impedance at 10 Hz, fluorescent microscopy), Gram-negative pathogens relative to Listeria; format: binding; settings: all 10^7 CFU/mL
Description: as §1, §2, §3

pathogenic E. coli cells = assay: Real-time detection in microfluidic flow cell, impedance response; format: binding; settings: flow rate 5 μL/min
Description: To simulate the use of the AMP microelectrodes in everyday applications, such as direct water sampling, the biosensor response tested to perform in real time, as shown in FIG. 8. First, a microfluidic cell was bonded to the interdigitated biosensor chip (FIG. 8A), such that the electrodes were perpendicular to the direction of the sample flow (FIG. 8B). Next, fluid was injected using a syringe pump connected to the inlet port, and allowed to flow through to the outlet port, at a flow rate of 100 μL/min. The flow cell was first flushed with buffer to establish a baseline. Various dilutions (10^4-10^7 CFU/mL) of pathogenic E. coli cells in PBS were then injected to the channel at a reduced flow rate of 5 μL/min for 30 min. […] Simultaneously, the impedance response was continuously monitored during the sample flow-through process (FIG. 8D). […] This difference between detection in flowing and static water sample has also been reported in fluorescent based assays. This difference is attributed to the opposing effects of shear and mixing on the binding kinetics.
Interdigitated capacitive electrodes were microfabricated on 4″ p-type silicon wafers (boron-doped, <100>, 10-16 Ω-cm, 550 μm thick). A 1 μm thick silicon dioxide layer was deposited on the wafer by plasma enhanced chemical vapor deposition (PECVD) to form electrical insulation between the Si substrate and the capacitive electrodes. S1813 photoresist was patterned using photolithography, followed by electron-beam evaporation of 10 nm Ti and 300 nm Au under high vacuum conditions. The titanium layer helps to provide adhesion of the Au to the SiO2. The IMA was then finally developed by lift-off patterning of the metallic layer in acetone with ultrasonic activation. […]
as §3

Substance	MIC (Escherichia coli)	effect of immobilized peptide on unbinding of bacterial cells [1]	MIC (Helicobacter pylori)	antimicrobial activity [2]	MIC (Staphylococcus aureus)	response for pathogenic E. coli relative to Salmonella (Salmonella typhimurium)	response of the biosensor towards target cells with increasing concentration of immobilized magainin (E. coli O157:H7 cells)	impedance difference, pathogenic Gram-negative E. coli and Salmonella relative to Gram-positive Listeria (Listeria monocytogenes)	time to measurable response relative to the control sample, all samples (pathogenic E. coli cells; 10^4-10^7 CFU/mL in PBS)	time to saturation of responses (pathogenic E. coli cells; 10^4-10^7 CFU/mL in PBS)	time to response, highest concentration sample (pathogenic E. coli cells)
Odorranin-HP [O-HP]	30 µg/mL	slows the unbinding kinetics	20 µg/mL	exert antimicrobial activity	5 µg/mL	–	–	–	–	–	–
GIGKFLHSAGKFGKAFVGEIMKS [magainin I]	–	–	–	–	–	slightly larger response	increase monotonically	two	≤ 5 min	ca. 20 min	≤ 30 s
